According to patent US4614807A, “6,7-dihalomelatonins” (Eli Lilly and Company, priority 1984, dated 1986):
Where two headings read alike, the source gives them in different places.

Columns and labels:
ovulation [1] = experiment: inhibition of ovulation, test compound given orally on the day of proestrus; absence of ova in oviduct; assay type: in vivo; conditions: oral, rat
Method: The compounds of the invention are ovulation inhibitors, with a longer duration of action than the monochloromelatonins. The degree of ovulation inhibitory activity was determined according to the following protocol.
Adult female rats with regular estrus cycles of four days each are employed. The estrus cycle consists of 2 days of diestrus followed by a day of proestrus and then a day of estrus. […] On the afternoon of proestrus, luteinizing hormone (LH) is released into the blood by the pituitary gland. The LH travels to the ovary where it induces ovulation, resulting in the presence of eggs in the oviduct on the day of estrus.
The test compound is administered orally at predetermined times on the day of proestrus. The rat is sacrificed on the following day (estrus). The oviduct is removed and examined microscopically for the presence of ova.
In the Table, column 1 gives the name of the compound, column 2 the time of administration and column 3 the percent inhibition of ovulation.

ovulation [2] = conditions: in vivo; cited from earlier work
[3] = test system: estrous phase of the estrous cycle and ovulation; conditions: mice; cited from earlier work
[4] = test system: estrous phase of the estrous cycle and ovulation; conditions: rats; cited from earlier work
[5] = time of administration 10:00 a.m.

## COc1cc2c(CCNC(C)=O)c[nH]c2c(Cl)c1Cl [6,7-dichloromelatonin, N-acetyl-5-methoxy-6,7-dichlorotryptamine]
Ovulation [1]; [5]
  Percent Inhibition of ovulation: 100%

## COc1cc2c(CCNC(C)=O)c[nH]c2cc1Cl [6-chloromelatonin]
Ovulation [2]
  ovulation blocking activity: increased ovulation blocking activity
Ovulation [1]; [5]
  Percent Inhibition of ovulation: 0%

## COc1cc2c(CCNC(C)=O)c[nH]c2cc1F [6-fluoromelatonin]
Ovulation [2]
  ovulation blocking activity: increased ovulation blocking activity

## COc1cc2c(CC(C)NC(C)=O)c[nH]c2cc1Cl (stereo not drawn) [α-methyl-6-chloromelatonin]
Ovulation [2]
  effect of α-methyl substitution on ovulation-blocking activity: no significant effect

## COc1ccc2[nH]cc(CCNC(C)=O)c2c1 [melatonin, N-[2-(5-methoxy-3-indolyl)ethyl]acetamide]
[3]
  inhibition of estrous phase of the estrous cycle: inhibited
  inhibition of ovulation: inhibited
[4]
  inhibition of estrous phase of the estrous cycle: inhibited
  inhibition of ovulation: inhibited

## COc1cc2c(CCNC(C)=O)c(C)[nH]c2c(Cl)c1Cl [2-methyl-6,7-dichloromelatonin]
Ovulation [1]; time of administration 8:00 a.m.
  Percent Inhibition of ovulation: 100%
